Data published in PMC11233931, “Remodeling tumor‐associated macrophage for anti‐cancer effects by rational design of irreversible inhibition of mitogen‐activated protein kinase‐activated protein kinase 2” (MedComm, 2024).

How the values were obtained:
Test in all cases: Eurofins kinase selectivity profile against 380 other human recombinant kinases (Table S2)
Type in all cases: biochemical
[1] = tested on: 380 human recombinant protein kinases
Summary of the method: (§1)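 Off-target profiling: one compound assayed by a commercial provider over 380 recombinant human protein kinases at various concentrations.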

[2] = target: T1, 380 human recombinant protein kinases (Homo sapiens, UniProt Q9P286); conditions: PAK5(h), read-out: Inhibition rate
T1 construct: purchased Eurofins (Celle Lévescault)
Summary of the method: as §1

[3] = target: T2, 380 human recombinant protein kinases (Homo sapiens, UniProt O00141); conditions: SGK(h), read-out: Inhibition rate (%)
T2 construct: purchased Eurofins (Celle Lévescault)
T2 sequence (O00141 1-431): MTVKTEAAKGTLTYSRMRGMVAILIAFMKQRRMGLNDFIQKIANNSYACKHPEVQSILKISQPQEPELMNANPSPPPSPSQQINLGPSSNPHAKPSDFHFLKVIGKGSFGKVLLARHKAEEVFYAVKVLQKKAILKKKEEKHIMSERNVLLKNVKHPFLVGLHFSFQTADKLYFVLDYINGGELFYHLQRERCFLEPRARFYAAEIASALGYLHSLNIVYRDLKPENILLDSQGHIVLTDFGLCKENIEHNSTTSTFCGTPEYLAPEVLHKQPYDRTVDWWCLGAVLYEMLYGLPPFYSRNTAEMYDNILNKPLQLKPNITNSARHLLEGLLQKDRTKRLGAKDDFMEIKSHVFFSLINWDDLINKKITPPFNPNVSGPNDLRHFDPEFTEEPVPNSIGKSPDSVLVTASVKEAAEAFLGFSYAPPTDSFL
Summary of the method: as §1

[4] = target: T3, 380 human recombinant protein kinases (Homo sapiens, UniProt Q14164); conditions: IKKε(h), read-out: Inhibition rate
T3 construct: purchased Eurofins (Celle Lévescault)
T3 sequence (Q14164 1-716): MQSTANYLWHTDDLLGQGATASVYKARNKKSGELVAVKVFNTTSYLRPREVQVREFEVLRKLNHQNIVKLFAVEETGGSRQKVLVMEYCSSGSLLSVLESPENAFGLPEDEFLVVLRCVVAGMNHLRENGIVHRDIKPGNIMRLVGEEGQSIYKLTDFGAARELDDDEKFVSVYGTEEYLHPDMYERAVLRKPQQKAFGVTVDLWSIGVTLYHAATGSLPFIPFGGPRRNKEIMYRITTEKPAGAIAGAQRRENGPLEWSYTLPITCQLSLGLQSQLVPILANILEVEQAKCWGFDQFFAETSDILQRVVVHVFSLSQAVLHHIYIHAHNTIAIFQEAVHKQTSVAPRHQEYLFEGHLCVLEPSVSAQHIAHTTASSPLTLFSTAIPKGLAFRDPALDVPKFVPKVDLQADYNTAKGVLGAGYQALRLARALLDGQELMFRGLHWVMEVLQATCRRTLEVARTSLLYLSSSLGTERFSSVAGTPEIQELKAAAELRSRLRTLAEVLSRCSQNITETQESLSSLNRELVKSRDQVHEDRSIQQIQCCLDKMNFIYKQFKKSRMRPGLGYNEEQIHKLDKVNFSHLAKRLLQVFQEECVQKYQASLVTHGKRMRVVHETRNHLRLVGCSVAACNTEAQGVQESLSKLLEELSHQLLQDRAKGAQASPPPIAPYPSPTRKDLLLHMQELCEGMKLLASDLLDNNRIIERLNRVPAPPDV
Summary of the method: as §1

[5] = target: T4, 380 human recombinant protein kinases (Homo sapiens, UniProt P00519, Y253F); conditions: Abl(Y253F)(h), read-out: Inhibition rate
T4 construct: purchased Eurofins (Celle Lévescault)
Summary of the method: as §1

[6] = target: T5, 380 human recombinant protein kinases (Homo sapiens, UniProt P31749); conditions: PKBα(h), read-out: Inhibition rate
T5 construct: purchased Eurofins (Celle Lévescault)
Summary of the method: as §1

T1 sequence (Q9P286 whole entry): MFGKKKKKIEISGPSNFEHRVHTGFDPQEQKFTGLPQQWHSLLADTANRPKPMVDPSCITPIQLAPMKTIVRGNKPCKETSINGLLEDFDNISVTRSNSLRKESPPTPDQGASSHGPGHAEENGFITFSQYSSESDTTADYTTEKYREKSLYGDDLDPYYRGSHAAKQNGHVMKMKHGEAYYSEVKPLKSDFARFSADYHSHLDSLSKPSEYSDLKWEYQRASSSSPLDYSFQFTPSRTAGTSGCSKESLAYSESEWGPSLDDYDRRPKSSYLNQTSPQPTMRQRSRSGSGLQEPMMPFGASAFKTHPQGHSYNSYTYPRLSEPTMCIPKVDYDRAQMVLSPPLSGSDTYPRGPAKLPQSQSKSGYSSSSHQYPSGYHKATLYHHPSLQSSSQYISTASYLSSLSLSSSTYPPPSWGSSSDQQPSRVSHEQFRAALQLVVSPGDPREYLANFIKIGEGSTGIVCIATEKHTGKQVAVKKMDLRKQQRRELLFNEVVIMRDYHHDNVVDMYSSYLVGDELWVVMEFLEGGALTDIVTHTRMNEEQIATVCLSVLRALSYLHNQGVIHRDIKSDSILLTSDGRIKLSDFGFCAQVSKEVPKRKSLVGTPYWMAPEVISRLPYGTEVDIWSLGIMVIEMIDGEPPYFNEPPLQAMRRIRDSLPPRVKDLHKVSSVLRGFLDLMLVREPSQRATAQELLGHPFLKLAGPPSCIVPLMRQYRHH
T5 sequence (P31749 whole entry): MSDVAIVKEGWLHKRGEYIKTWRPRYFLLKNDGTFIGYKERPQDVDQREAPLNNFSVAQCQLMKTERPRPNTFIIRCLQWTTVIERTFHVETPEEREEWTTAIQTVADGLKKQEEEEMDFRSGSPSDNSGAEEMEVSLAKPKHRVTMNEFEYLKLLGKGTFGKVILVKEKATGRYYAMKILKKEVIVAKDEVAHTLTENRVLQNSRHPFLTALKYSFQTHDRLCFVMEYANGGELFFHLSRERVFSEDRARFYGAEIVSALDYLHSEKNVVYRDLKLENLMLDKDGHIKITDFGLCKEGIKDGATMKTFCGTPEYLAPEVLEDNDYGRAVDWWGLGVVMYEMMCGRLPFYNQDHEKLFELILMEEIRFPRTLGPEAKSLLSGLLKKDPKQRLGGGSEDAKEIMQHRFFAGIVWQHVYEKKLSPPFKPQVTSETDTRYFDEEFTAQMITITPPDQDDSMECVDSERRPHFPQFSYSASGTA

With `C=CC(=O)Nc1cc(-c2cc(-c3cc4c([nH]3)CCNC4=O)ccn2)ccc1OC(F)(F)F` [compound 11] the “inhibitory rate on the other 380 kinases tested” value ([1]; 10 nM, all 380 kinases) was “less than 50%”, the “selectivity for MK2 over the other tested kinases” value ([1]; 91.8% of total tested kinases) was “more than 434 fold” and the Inhibition rate ([1]; ACTR2(h), 10 nM) was -9%. It also gave an Inhibition rate ([1]; ACTR2(h), 100 nM) of -11%, an Inhibition rate ([1]; ACTR2(h), 1000 nM) of -8% and an Inhibition rate ([1]; MAPK1(h), 10 nM) of -1%. The Inhibition rate ([1]; MAPK1(h), 100 nM) was 0%, the Inhibition rate ([1]; MAPK1(h), 1000 nM) was 7% and the Inhibition rate ([1]; PKCβII(h), 10 nM) was -1%. It also gave an Inhibition rate ([1]; PKCβII(h), 100 nM) of 4%, an Inhibition rate ([1]; PKCβII(h), 1000 nM) of 6% and an Inhibition rate ([1]; PKG1β(h), 10 nM) of 7%. For the same compound, the Inhibition rate ([1]; PKG1β(h), 100 nM) was 10%, the Inhibition rate ([1]; PKG1β(h), 1000 nM) was 5% and the inhibition at 0.01 µM ([2]; 10 nM) was -2%. For the same compound, the inhibition at 0.1 µM ([2]; 100 nM) was -2%, the inhibition at 1 µM ([2]; 1000 nM) was -2% and the inhibition at 0.01 µM ([3]; 10 nM) was 0%. It also gave an inhibition at 0.1 µM ([3]; 100 nM) of 7%, an inhibition at 1 µM ([3]; 1000 nM) of 1% and an inhibition at 0.01 µM ([4]; 10 nM) of -2%. The inhibition at 0.1 µM ([4]; 100 nM) was -1%, the inhibition at 1 µM ([4]; 1000 nM) was 5% and the inhibition at 0.01 µM ([5]; 10 nM) was 0%. It also gave an inhibition at 0.1 µM ([5]; 100 nM) of 2%, an inhibition at 1 µM ([5]; 1000 nM) of 21% and an inhibition at 0.01 µM ([6]; 10 nM) of 2%. The inhibition at 0.1 µM ([6]; 100 nM) was 4% and the inhibition at 1 µM ([6]; 1000 nM) was 14%.
